Experimental data published in patent EP2832223A1, “HERBICIDAL COMPOSITION” (Ishihara Sangyo Kaisha, Ltd., priority 2012, dated 2013).

How the values were obtained:
Format in all cases: in vivo
[1] = test system: common cocklebur (Xanthium strumarium L.); test: Test Example 12: pot test, foliar treatment, visual growth inhibition; conditions: 250 g/ha, foliar treatment at 4.2 to 4.3-leaf stage, 28th day after treatment, read-out: Growth inhibition rate (%) of common cocklebur Measured value
Procedure: Upland field soil was put into a 1/1,000,000 ha pot, and seeds of common cocklebur (Xanthium strumarium L.) were sown. When the common cocklebur reached 4.2 to 4.3-leaf stage, predetermined amounts of ONEHOPE NYUZAI (tradename), Click (tradename) and water dispersible granules containing flufenacet as an active ingredient (tradename: Cadou, manufactured by Bayer CropScience) were diluted with water (in an amount corresponding to 1,000 L/ha) and applied for foliar treatment by a small sprayer.
(§1) On the 28th day after treatment, the state of growth of the common cocklebur was visually observed to determine the growth inhibition rate (%). The growth inhibition rate (%) (measured value) and the growth inhibition rate (%) calculated in the same manner as in the above Test Example 1 are shown in Table 12.

[2] = test system: guinea grass (Panicum maximum Jacq.); test: Test Example 15: pot test, soil and foliar treatment, visual growth inhibition; conditions: Megathyrsus maximus, 250 g/ha, 31st day after treatment, read-out: Growth inhibition rate (%) of guinea grass Measured value
Procedure: (§2) Upland field soil was put into a 1/1,000,000 ha pot, and seeds of guinea grass (Panicum maximum Jacq.) were sown. When the guinea grass reached 5.2 to 6.0-leaf stage, seeds of guinea grass were further sown in the same pot assuming conditions such that weeds would later grow. On the next day, predetermined amounts of ONEHOPE NYUZAI (tradename), Click (tradename), Spectrum (tradename) and Cadou (tradename) were diluted with water in an amount corresponding to 300 L/ha and applied for soil treatment and for foliar treatment by a small sprayer.
as §1, with “31 st” for “28th”, “guinea grass” for “common cocklebur”, “15.” for “12.”

[3] = test system: velvetleaf (Abutilon theophrasti Medic.); test: Test Example 14: pot test, soil and foliar treatment, visual growth inhibition; conditions: read-out: Growth inhibition rate (%) of velvetleaf Measured value
Text: as §2, with “velvetleaf (Abutilon theophrasti Medic.)” for “guinea grass (Panicum maximum Jacq.)”, “velvetleaf” for “guinea grass”, “4.0” for “5.2”, “4.3-leaf” for “6.0-leaf”, “Callisto (tradename), Mikado (tradename), a wettable powder containing bicyclopyrone as an active ingredient” for “Spectrum (tradename)”, “Clio” for “Cadou”
as §1, with “31 st” for “28th”, “velvetleaf” for “common cocklebur”, “14.” for “12.”

[4] = test system: rostrate sesbania (Sesbania rostrata Bremek. & Oberm.); test: Test Example 8: pot test, soil treatment, visual growth inhibition; conditions: soil, read-out: Growth inhibition rate (%) of rostrate sesbania Measured value
Procedure: (§3) Upland field soil was put into a 1/300,000 ha pot, and seeds of rostrate sesbania (Sesbania rostrata Bremek. & Oberm.) were sown. On the next day, predetermined amounts of ONEHOPE NYUZAI (tradename), Click (tradename), Spectrum (tradename) and Clio (tradename) were diluted with water (in an amount corresponding to 1,000 L/ha) and applied for soil treatment by a small sprayer.
as §1, with “rostrate sesbania” for “common cocklebur”, “8.” for “12.”

[5] = test system: Japanese millet (Echinochloa utilis Ohwi et Yabuno); test: Test Example 5: pot test, soil treatment, visual growth inhibition; conditions: soil, read-out: Growth inhibition rate (%) of Japanese millet Measured value
Procedure: (§4) Upland field soil was put into a 1/300,000 ha pot, and seeds of Japanese millet (Echinochloa utilis Ohwi et Yabuno) were sown. On the next day, predetermined amounts of ONEHOPE NYUZAI (tradename), Click (tradename) and SC formulation containing topramezone as an active ingredient (tradename: Clio, manufactured by BASF) were diluted with water (in an amount corresponding to 1,000 L/ha) and applied for soil treatment by a small sprayer.
as §1, with “Japanese millet” for “common cocklebur”, “5.” for “12.”

[6] = test system: velvetleaf (Abutilon theophrasti Medic.); test: Test Example 16: pot test, soil and foliar treatment, visual growth inhibition; conditions: read-out: Growth inhibition rate (%) of velvetleaf Measured value
Text: Upland field soil was put into a 1/1,000,000 ha pot, and seeds of velvetleaf (Abutilon theophrasti Medic.) were sown. When the velvetleaf reached 4.0 to 4.3-leaf stage, seeds of velvetleaf were further sown in the same pot assuming conditions such that weeds would later grow. Three days later, predetermined amounts of ONEHOPE NYUZAI (tradename), Click (tradename), Callisto (tradename), Mikado (tradename), a wettable powder containing bicyclopyrone as an active ingredient and Clio (tradename) were diluted with water in an amount corresponding to 300 L/ha and applied for soil treatment and for foliar treatment by a small sprayer.
as §1, with “29th” for “28th”, “velvetleaf” for “common cocklebur”, “16.” for “12.”

[7] = test system: prickly sida (Sida spinosa L.); test: Test Example 10: pot test, soil treatment, visual growth inhibition; conditions: read-out: Growth inhibition rate (%) of prickly sida Measured value
Procedure: as §3, with “prickly sida (Sida spinosa L.)” for “rostrate sesbania (Sesbania rostrata Bremek. & Oberm.)”, “Spectrum (tradename), Callisto” for “Spectrum”
as §1, with “prickly sida” for “common cocklebur”, “10.” for “12.”

[8] = test system: wild oat (Avena fatua L.); test: Test Example 2: pot test, soil treatment, visual growth inhibition; conditions: 50 g/ha, 28th day after treatment, read-out: Growth inhibition rate (%) of wild oat Measured value
Procedure: as §4, with “1/500,000” for “1/300,000”, “wild oat (Avena fatua L.)” for “Japanese millet (Echinochloa utilis Ohwi et Yabuno)”, “mesotrione” for “topramezone”, “Callisto,” for “Clio,”, “Syngenta)” for “BASF)”
as §1, with “wild oat” for “common cocklebur”, “2.” for “12.”

[9] = test system: green foxtail (Setaria viridis (L.) P.Beauv.); test: Test Example 3: pot test, soil treatment, visual growth inhibition; conditions: soil, read-out: Growth inhibition rate (%) of green foxtail Measured value
Procedure: as §4, with “1/1,000,000” for “1/300,000”, “green foxtail (Setaria viridis (L.) P.Beauv.)” for “Japanese millet (Echinochloa utilis Ohwi et Yabuno)”, “sulcotrione” for “topramezone”, “Mikado,” for “Clio,”, “Bayer CropScience)” for “BASF)”
as §1, with “27th” for “28th”, “green foxtail” for “common cocklebur”, “3.” for “12.”

[10] = test system: Japanese millet (Echinochloa utilis Ohwi et Yabuno); test: Test Example 9: pot test, soil treatment, visual growth inhibition; conditions: soil, read-out: Growth inhibition rate (%) of Japanese millet Measured value
Procedure: as §4, with “Click (tradename), Mikado” for “Click”, “a wettable powder containing bicyclopyrone prepared in accordance with a conventional” for “SC”, “method” for “containing topramezone as an active ingredient (tradename: Clio, manufactured by BASF)”
as §1, with “Japanese millet” for “common cocklebur”, “9.” for “12.”

[11] = test system: annual ragweed (Ambrosia artemisiifolia L.); test: Test Example 11: pot test, soil treatment, visual growth inhibition; conditions: soil, read-out: Growth inhibition rate (%) of annual ragweed Measured value
Procedure: (§5) Upland field soil was put into a 1/300,000 ha pot, and seeds of annual ragweed (Ambrosia artemisiifolia L.) were sown. On the next day, predetermined amounts of ONEHOPE NYUZAI (tradename), Click (tradename), Mikado (tradename) and a wettable powder containing bicyclopyrone prepared in accordance with a conventional formulation method were diluted with water (in an amount corresponding to 1,000 L/ha) and applied for soil treatment by a small sprayer.
as §1, with “annual ragweed” for “common cocklebur”, “11.” for “12.”

[12] = test system: sunn-hemp (Crotalaria juncea L.); test: Test Example 7: pot test, soil treatment, visual growth inhibition; conditions: soil, read-out: Growth inhibition rate (%) of sunn-hemp Measured value
Procedure: as §5, with “sunn-hemp (Crotalaria juncea” for “annual ragweed (Ambrosia artemisiifolia”
as §1, with “sunn-hemp” for “common cocklebur”, “7.” for “12.”

[13] = test system: korean lespedeza (Kummerowia stipulacea (Maxim.) Makino); test: Test Example 6: pot test, soil treatment, visual growth inhibition; conditions: soil, read-out: Growth inhibition rate (%) of korean lespedeza Measured value
Procedure: as §5, with “korean lespedeza (Kummerowia stipulacea (Maxim.) Makino)” for “annual ragweed (Ambrosia artemisiifolia L.)”
as §1, with “14th” for “28th”, “korean lespedeza” for “common cocklebur”, “6.” for “12.”

CC(C)N(C(=O)COc1nnc(C(F)(F)F)s1)c1ccc(F)cc1 [Flufenacet, 4'-fluoro-N-isopropyl-2-[5-(trifluoromethyl)-1,3,4-thidiazol-2-yloxy]acetanilide] was tested, and the inhibition at 250 g/ha [1] was 0% and the inhibition at 250 g/ha [2] was 50%.
Work on Cc1c(C(=O)c2cnn(C)c2O)ccc(S(C)(=O)=O)c1C1=NOCC1 [Topramezone, [3-(4,5-dihydro-1,2-oxazol-3-yl)-4-mesyl-o-tolyl](5-hydroxy-1-methylpyrazol-4-yl)methanone] yielded an inhibition at 10 g/ha [3] of 8%, an inhibition at 60 g/ha [3] of 65% and an inhibition at 100 g/ha [4] of 80%. It also gave an inhibition at 40 g/ha [5] of 30%, an inhibition at 20 g/ha [6] of 50% and an inhibition at 10 g/ha ([7]; soil) of 0%.
CS(=O)(=O)c1ccc(C(=O)C2C(=O)CCCC2=O)c([N+](=O)[O-])c1 [Mesotrione, 2-(4-mesyl-2-nitrobenzoyl)cyclohexane-1,3-dione] was tested, and the inhibition at 50 g/ha ([3]; 50 g/ha, soil treatment and foliar treatment, 31st day after treatment) was 91%, the inhibition at 120 g/ha ([3]; 120 g/ha, soil treatment and foliar treatment, 31st day after treatment) was 93% and the inhibition at 75 g/ha ([6]; 75 g/ha, soil treatment and foliar treatment, 29th day after treatment) was 89%. It also gave an inhibition at 50 g/ha [8] of 0% and an inhibition at 25 g/ha ([7]; 25 g/ha, soil treatment, 28th day after treatment) of 25%.
Compound CS(=O)(=O)c1ccc(C(=O)C2C(=O)CCCC2=O)c(Cl)c1 [Sulcotrione, 2-(2-chloro-4-mesylbenzoyl)cyclohexane-1,3-dione] has an inhibition at 100 g/ha [3] of 88%, an inhibition at 300 g/ha [3] of 90% and an inhibition at 300 g/ha [9] of 5%. It also gave an inhibition at 200 g/ha [6] of 88%, an inhibition at 50 g/ha [10] of 20% and an inhibition at 2000 g/ha [11] of 85%. It also gave an inhibition at 50 g/ha [12] of 10% and an inhibition at 1000 g/ha [13] of 15%.
